The values below come from ChEMBL document CHEMBL1201862, “PubChem BioAssay data set” (2004).

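Interpolation was linear, between the two tested concentrations surrounding the appropriate level; five concentrations were tested over 48 hours in 96-well plates. GI50 = concentration required for 50% inhibition of growth.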 Active and inactive are the calls of the source. No stated cut-off is given here; in the data, active = GI50 up to about 1.1 µM and inactive = higher. Some results are limits rather than exact numbers.

Test in all cases: NCI anticancer screen, dose series, 48 h
Experiment [1] concerns M14.
Experiment [2] concerns NCI-H522.
The subject of experiment [3] is HT-29.
Experiment [4] relates to NCI-H23.
Experiment [5] deals with SK-MEL-5.
The test system of experiment [6] is NCI-H460.
The test system of experiment [7] is IGROV-1.
The subject of experiment [8] is OVCAR-8.
Experiment [9] deals with SW-620.
In experiment [10] the test system is OVCAR-5.
The subject of experiment [11] is PC-3.
Experiment [12] relates to HCT-116.
The test system of experiment [13] is TK-10.
For experiment [14], the system named is CCRF-CEM.
For experiment [15], the system named is HL-60.
In experiment [16] the test system is NCI-H226.
The subject of experiment [17] is DU-145.
The subject of experiment [18] is SK-MEL-28.
Experiment [19] has as its system HCC 2998.
Experiment [20] concerns LXFL 529.

Take `CCCCCCC(=O)OC[n+]1ccc2c(C)c3[nH]c4ccc(OC)cc4c3c(C)c2c1`: the GI50 in [1] was 703 nM (active); in experiment [2], 303 nM (active); in experiment [3], 66.4 nM (active); in experiment [4], 329 nM (active); in experiment [5], 1160 nM (inactive); in [6], 38.2 nM (active). Also, the GI50 was 268 nM (active) in experiment [7]; 75.2 nM (active) in experiment [8]; 62.8 nM (active) in experiment [9]; 1050 nM (active) in experiment [10]; 246 nM (active) in experiment [11]; 54 nM (active) in [12]. Moreover, the GI50 was 2050 nM (inactive) in experiment [13]; 70.6 nM (active) in experiment [14]; 245 nM (active) in [15]; 476 nM (active) in experiment [16]; 550 nM (active) in [17]; 1290 nM (inactive) in experiment [18]. Moreover, the GI50 in experiment [19] was 421 nM (active); in [20], 133 nM (active).

In the case of `COc1cccc2c1C(=O)c1c(O)c3c(c(O)c1C2=O)C[C@@](O)(C(=O)CO)C[C@@H]3OC1CC(N2CCOCC2C#N)C(O)C(C)O1` (stereo partly specified), the GI50 is 0.0542 nM (active) in experiment [1]; 0.0305 nM (active) in experiment [2]; 0.0207 nM (active) in [3]; 0.0245 nM (active) in experiment [4]; 0.0372 nM (active) in experiment [5]; 0.00817 nM (active) in [6]. Further, the GI50 is 0.0857 nM (active) in experiment [7]; 0.0518 nM (active) in experiment [8]; 0.0723 nM (active) in experiment [9]; 0.0498 nM (active) in experiment [10]; 0.107 nM (active) in experiment [11]; 0.0271 nM (active) in [12]. Moreover, the GI50 in experiment [13] was 0.149 nM (active); in [14], 0.0194 nM (active); in experiment [15], 0.0202 nM (active); in experiment [16], 0.0146 nM (active); in [17], 0.0415 nM (active); in experiment [18], 0.0973 nM (active). The GI50 in experiment [19] is 0.0537 nM (active); in [20], 1 nM (active).

As to `Nc1ccc(C(=O)NN2C(=O)C(Cl)C2c2cccc([N+](=O)[O-])c2)cc1` (stereo unspecified), the GI50 in experiment [1] was 23000 nM (inactive); in experiment [2], 12000 nM (inactive); in experiment [3], 20700 nM (inactive); in experiment [4], 16400 nM (inactive); in experiment [5], 19200 nM (inactive); in [6], 59700 nM (inactive). Further, the GI50 in experiment [7] was 14300 nM (inactive); in experiment [8], 18100 nM (inactive); in [9] it was 21700 nM (inactive); in experiment [10], 21100 nM (inactive); in experiment [12] it was 17300 nM (inactive); in [13], 18700 nM (inactive). In addition, the GI50 is 9790 nM (inactive) in experiment [14]; 20700 nM (inactive) in experiment [15]; 20200 nM (inactive) in experiment [16]; 21000 nM (inactive) in experiment [18]; 24300 nM (inactive) in [19]; 20000 nM (inactive) in experiment [20].

With `OCC1OC(n2cnc3c2NC=NC[C@H]3O)CC1O` (stereo partly specified), the GI50 in experiment [1] was 418000 nM (inactive); in experiment [2] it was 444000 nM (inactive); in [4], 486000 nM (inactive); in experiment [5] it was 483000 nM (inactive); in experiment [6], 418000 nM (inactive); in experiment [7], 450000 nM (inactive). The GI50 in experiment [8] was 489000 nM (inactive); in experiment [10], > 500000 nM (inactive); in experiment [11], > 500000 nM (inactive); in experiment [12] it was 483000 nM (inactive); in experiment [13], > 500000 nM (inactive); in experiment [14] it was 392000 nM (inactive). In addition, the GI50 in [15] was 417000 nM (inactive); in experiment [16] it was 484000 nM (inactive); in [17] it was 324000 nM (inactive); in experiment [18], 493000 nM (inactive); in experiment [19] it was 387000 nM (inactive); in [20], > 500000 nM (inactive).
